Read-outs that look alike come from different tables or passages of the source.
Experiments:
H2 = H2 (Homo sapiens, UniProt P25021); test: Radioligand competition binding, H2; conditions: Table 5; Cheng-Prusoff from best fit IC50
Beta3 = Beta3 (Homo sapiens, UniProt P13945); test: Radioligand competition binding, Beta3; conditions: Table 5; Cheng-Prusoff from best fit IC50
sigma 2 receptor = sigma 2 receptor (Homo sapiens, UniProt Q5BJF2); test: Sigma 2 receptor radioligand competition binding; conditions: for Ki ratio Sig1R/Sig2R: Table 1, ratio of Sig1R Ki to Sig2R Ki
5-HT1B = 5-HT1B (Homo sapiens, UniProt P28222); test: Radioligand competition binding, 5-HT1B; conditions: Table 5; Cheng-Prusoff from best fit IC50
5-HT6 = 5-HT6 (Homo sapiens, UniProt P50406); test: Radioligand competition binding, 5-HT6; conditions: Table 5; Cheng-Prusoff from best fit IC50
5-HT2B = 5-HT2B (Homo sapiens, UniProt P41595); test: Radioligand competition binding, 5-HT2B; conditions: Table 5; Cheng-Prusoff from best fit IC50
sigma 1 receptor = sigma 1 receptor (Homo sapiens, UniProt Q99720); test: Sigma 1 receptor radioligand competition binding; conditions: Table 1, 7-piperazinyl-tetrahydronaphthalene analogs; read-out: Ki (nM) Sig1R
5-HT2A = 5-HT2A (Homo sapiens, UniProt P28223); test: Radioligand competition binding, 5-HT2A; conditions: Table 5; Cheng-Prusoff from best fit IC50
D3 = D3 (Homo sapiens, UniProt P35462); test: Radioligand competition binding, D3; conditions: Table 5; Cheng-Prusoff from best fit IC50; one value marked (AVE)
5-HT7 = 5-HT7 (Homo sapiens, UniProt P34969); test: Radioligand competition binding, 5-HT7; conditions: Table 5; Cheng-Prusoff from best fit IC50
D4 = target: T1, D4 (Homo sapiens, UniProt P21917); test: Radioligand competition binding, D4; conditions: Table 5; Cheng-Prusoff from best fit IC50
T1 sequence (P21917 1-419): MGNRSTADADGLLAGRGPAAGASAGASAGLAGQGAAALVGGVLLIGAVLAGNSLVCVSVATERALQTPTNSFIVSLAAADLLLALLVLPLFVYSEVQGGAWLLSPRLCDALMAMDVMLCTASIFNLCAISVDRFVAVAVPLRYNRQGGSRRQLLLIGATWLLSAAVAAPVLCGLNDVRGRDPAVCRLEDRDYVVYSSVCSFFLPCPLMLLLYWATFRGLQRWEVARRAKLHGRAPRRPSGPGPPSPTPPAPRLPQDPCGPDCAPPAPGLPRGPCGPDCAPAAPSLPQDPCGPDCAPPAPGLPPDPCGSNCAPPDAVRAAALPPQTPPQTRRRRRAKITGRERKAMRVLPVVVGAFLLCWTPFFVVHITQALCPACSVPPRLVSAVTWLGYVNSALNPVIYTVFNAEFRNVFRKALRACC

D1 = D1 (Homo sapiens, UniProt P21728); test: Radioligand competition binding, D1; conditions: Table 5; Cheng-Prusoff from best fit IC50; some values marked (AVE)
5-HT1D = 5-HT1D (Homo sapiens, UniProt P28221); test: Radioligand competition binding, 5-HT1D; conditions: Table 5; Cheng-Prusoff from best fit IC50
5-HT1A = target: T2, 5-HT1A (Homo sapiens, UniProt P08908); test: Radioligand competition binding, 5-HT1A; conditions: Table 5; Cheng-Prusoff from best fit IC50
T2 sequence (P08908 1-422): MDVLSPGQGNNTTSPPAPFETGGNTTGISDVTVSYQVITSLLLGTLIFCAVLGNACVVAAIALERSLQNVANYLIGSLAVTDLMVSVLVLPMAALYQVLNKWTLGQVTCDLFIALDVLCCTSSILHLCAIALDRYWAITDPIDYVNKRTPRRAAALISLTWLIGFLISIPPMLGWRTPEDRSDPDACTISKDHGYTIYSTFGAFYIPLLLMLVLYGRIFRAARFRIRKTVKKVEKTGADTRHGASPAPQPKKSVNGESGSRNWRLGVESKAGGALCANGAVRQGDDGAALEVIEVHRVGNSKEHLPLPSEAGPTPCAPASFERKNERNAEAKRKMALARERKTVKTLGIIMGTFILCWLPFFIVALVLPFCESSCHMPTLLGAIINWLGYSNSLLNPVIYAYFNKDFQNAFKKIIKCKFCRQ

DAT = DAT (Homo sapiens, UniProt Q01959); test: Radioligand competition binding, DAT; conditions: Table 5; Cheng-Prusoff from best fit IC50
Alpha2A = target: T3, Alpha2A (Homo sapiens, UniProt P08913); test: Radioligand competition binding, Alpha2A; conditions: Table 5; Cheng-Prusoff from best fit IC50
T3 sequence (P08913 1-465): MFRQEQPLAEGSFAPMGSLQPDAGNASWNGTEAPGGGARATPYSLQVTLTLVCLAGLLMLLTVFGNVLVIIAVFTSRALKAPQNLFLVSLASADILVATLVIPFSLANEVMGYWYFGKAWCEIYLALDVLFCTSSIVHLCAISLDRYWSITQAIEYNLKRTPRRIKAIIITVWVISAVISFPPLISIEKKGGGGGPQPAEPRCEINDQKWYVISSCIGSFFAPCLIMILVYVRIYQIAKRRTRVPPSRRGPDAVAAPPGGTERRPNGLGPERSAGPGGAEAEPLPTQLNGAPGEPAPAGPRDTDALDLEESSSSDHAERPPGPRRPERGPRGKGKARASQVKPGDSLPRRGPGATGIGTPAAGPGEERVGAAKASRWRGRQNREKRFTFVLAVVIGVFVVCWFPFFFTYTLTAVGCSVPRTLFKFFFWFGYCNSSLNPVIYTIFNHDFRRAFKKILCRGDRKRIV

D2 = D2 (Homo sapiens, UniProt P14416); test: Radioligand competition binding, D2; conditions: Table 5; Cheng-Prusoff from best fit IC50
D5 = D5 (Homo sapiens, UniProt P21918); test: Radioligand competition binding, D5; conditions: Table 5; Cheng-Prusoff from best fit IC50
Alpha1A = Alpha1A (Homo sapiens, UniProt P35348); test: Radioligand competition binding, Alpha1A; conditions: Table 5; Cheng-Prusoff from best fit IC50
PBR = PBR (UniProt P16257); test: Radioligand competition binding, PBR; conditions: Table 5; Cheng-Prusoff from best fit IC50; one value marked (AVE)
5-ht5a = 5-ht5a (Homo sapiens, UniProt P47898); test: Radioligand competition binding, 5-ht5a; conditions: Table 5; Cheng-Prusoff from best fit IC50
H1 = H1 (Homo sapiens, UniProt P35367); test: Radioligand competition binding, H1; conditions: Table 5; Cheng-Prusoff from best fit IC50
Alpha2C = Alpha2C (Homo sapiens, UniProt P18825); test: Radioligand competition binding, Alpha2C; conditions: Table 5; Cheng-Prusoff from best fit IC50
M5 = M5 (Homo sapiens, UniProt P08912); test: Radioligand competition binding, M5; conditions: Table 5; Cheng-Prusoff from best fit IC50
H3 = H3 (Homo sapiens, UniProt Q9Y5N1); test: Radioligand competition binding, H3; conditions: Table 5; Cheng-Prusoff from best fit IC50
5-HT2C = target: T4, 5-HT2C (Homo sapiens, UniProt P28335); test: Radioligand competition binding, 5-HT2C; conditions: Table 5; Cheng-Prusoff from best fit IC50
T4 sequence (P28335 33-458): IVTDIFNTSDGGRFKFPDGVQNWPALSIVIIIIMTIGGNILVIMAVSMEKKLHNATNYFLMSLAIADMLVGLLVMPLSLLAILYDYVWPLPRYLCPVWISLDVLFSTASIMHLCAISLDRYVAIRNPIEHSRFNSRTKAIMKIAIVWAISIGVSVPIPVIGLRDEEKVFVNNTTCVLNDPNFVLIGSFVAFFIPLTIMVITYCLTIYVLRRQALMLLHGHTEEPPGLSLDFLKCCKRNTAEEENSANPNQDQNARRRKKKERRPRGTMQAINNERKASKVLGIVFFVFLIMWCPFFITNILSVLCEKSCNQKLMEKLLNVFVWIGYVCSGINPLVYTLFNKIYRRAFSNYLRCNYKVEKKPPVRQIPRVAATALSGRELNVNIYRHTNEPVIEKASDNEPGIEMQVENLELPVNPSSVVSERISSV

M4 = M4 (Homo sapiens, UniProt P08173); test: Radioligand competition binding, M4; conditions: Table 5; Cheng-Prusoff from best fit IC50; one value marked (AVE)
KOR = KOR (Homo sapiens, UniProt P41145); test: Radioligand competition binding, KOR; conditions: Table 5; Cheng-Prusoff from best fit IC50; some values marked (AVE)
Alpha1D = Alpha1D (Homo sapiens, UniProt P25100); test: Radioligand competition binding, Alpha1D; conditions: Table 5; Cheng-Prusoff from best fit IC50
[1] = Table 1, 7-piperazinyl-tetrahydronaphthalene analogs, read-out: Ki (nM) Sig2R
[2] = Table 5, Cheng-Prusoff from best fit IC50, read-out: Ki Sigma 2

| SMILES | Ki (H2) [nM] | Ki (sigma 2 receptor; [1]) [nM] | Ki ratio Sig1R/Sig2R (sigma 2 receptor) | Ki (sigma 2 receptor; [2]) [nM] | Ki (5-HT1B) [nM] | Ki (5-HT6) [nM] | Ki (5-HT2B) [nM] | Ki (sigma 1 receptor) [nM] | Ki (5-HT2A) [nM] | Ki (D3) [nM] | Ki (5-HT7) [nM] | Ki (D4) [nM] | Ki (D1) [nM] | Ki (5-HT1D) [nM] | Ki (5-HT1A) [nM] | Ki (DAT) [nM] | Ki (Alpha2A) [nM] | Ki (D2) [nM] | Ki (D5) [nM] | Ki (PBR) [nM] | other results |
| --- | --- | --- | --- | --- | --- | --- | --- | --- | --- | --- | --- | --- | --- | --- | --- | --- | --- | --- | --- | --- | --- |
| CN(C(=O)OCc1ccccc1)C1CCCc2ccc(N3CCN(CCCO)CC3)cc21 (stereo not shown) [MDW-1-177, Benzyl (7-(4-(3-hydroxypropyl)piperazin-1-yl)-1,2,3,4-tetrahydronaphthalen-1-yl)(methyl)carbamate] | 291 | 21 | 23 | 21 | 261 | 1230 | 99 | 474 | 632 | 597 | 585 | > 10000 | 1350 | 136 | 528 | – | – | – | – | – | Ki (Beta3): 8040 nM |
| CCCN1CCN(c2ccc3c(c2)C(N(CCC)C(=O)OCc2ccccc2)CCC3)CC1 (stereo not shown) [MDW-1-196, Benzyl propyl(7-(4-propylpiperazin-1-yl)-1,2,3,4-tetrahydronaphthalen-1-yl)carbamate] | 1040 | 9 | 22 | 9.4 | 1310 | 1960 | 2140 | 199 | 1280 | 177 | 1050 | 2510 | 1920 | 1100 | 3800 | 1910 | 980 | 931 | > 10000 | – | – |
| CCCN(C(=O)OCc1ccccc1)C1CCCc2ccc(N3CCN(CCC(=O)OCC)CC3)cc21 (stereo not shown) [MDW-1-191, Ethyl 3-(4-(8-(((benzyloxy)carbonyl)(propyl)amino)-5,6,7,8-tetrahydronaphthalen-2-yl)piperazin-1-yl)propanoate] | 1290 | 19 | 124 | – | 441 | 1560 | 771 | 2360 | 1730 | 315 | 891 | 1720 | – | 1140 | 569 | > 10000 | – | 2410 | – | 1670 | Ki (Alpha1A): 1410 nM; Ki (5-ht5a): 1530 nM |
| CN(Cc1cc(Cl)cc(Cl)c1)C1CCCc2ccc(N3CCOCC3)cc21 (stereo not shown) [MDW-1-131, N-(3,5-dichlorobenzyl)-N-methyl-7-morpholino-1,2,3,4-tetrahydronaphthalen-1-amine] | – | – | – | 522 | – | – | – | – | – | 3390 | – | – | – | – | – | – | – | – | – | 902 | Ki (H1): 182 nM; Ki (Alpha2C): 2540 nM |
| CN(C(=O)OCc1ccccc1)C1CCCc2ccc(N3CCN(C4CCCC4)CC3)cc21 (stereo not shown) [MDW-1-140, Benzyl (7-(4-cyclopentylpiperazin-1-yl)-1,2,3,4-tetrahydronaphthalen-1-yl)(methyl)carbamate] | 211 | 2 | 41 | 2.1 | – | 1020 | 263 | 86 | 547 | 462 | 1480 | – | 457 | 509 | 367 | – | 1110 | – | 2600 | 4060 | Ki (M5): 3690 nM; Ki (H3): 965 nM; Ki (H1): 28 nM; Ki (5-HT2C): 1460 nM; Ki (5-ht5a): 2500 nM; Ki (M4): 2980 nM; Ki (KOR): ≥ 10000 nM; Ki (Alpha1D): 1810 nM |

— patent US20210323913A1, “SIGMA RECEPTOR BINDERS” (BOARD OF REGENTS, THE UNIVERSITY OF TEXAS SYSTEM, priority 2016, published 2021)
